Laboratory results published in US10881110B2, “Herbicidal compositions comprising isoxazolo[5,4-b]pyridines” (BASF SE, priority 2014, dated 2021).

Experiments:
Assay in all cases: greenhouse post-emergence herbicidal test
[1] = test system: ABUTH; type: in vivo, Abutilon theophrast; set-up: key to herbicidal activity against ABUTH found: rating on a scale from 0 to 100; conditions: post emergence
Experimental: (§1) The culture containers used were plastic pots containing medium loamy sand with approximately 4.6% of humus and 69.9% sand as substrate. The seeds of the test plants were sown separately for each species.
(§2) For the post-emergence treatment, the test plants were grown to a plant height of from 1 to 15 cm, depending on the plant habit, and only then treated with the active compounds which had been suspended or emulsified in water. To this end, the test plants were either sown directly, and grown in the same containers, or they were first grown separately as seedlings and transplanted into the test containers a few days prior to treatment.
(§3) Depending on the species, the plants were kept at 10-25° C. and 20-35° C., respectively.
(§4) The test period extended over 1 to 3 weeks. During this time, the plants were tended and their response to the individual treatments was evaluated 20 days after treatment except mentioned otherwise.
(§5) Evaluation was carried out using a scale from 0 to 100. 100 means no emergence of the plants, or complete destruction of at least the above-ground parts, and 0 means no damage or normal course of growth.
(§6) The respective stated components A and B, and, if appropriate, C, were formulated as a 10% by weight strength emulsion concentrate and, with addition of the amount of solvent system, introduced into the spray liquor used for applying the active compound. In the examples, the solvent used was water.
(§7) In the examples below, using the method of S. R. Colby (1967) “Calculating synergistic and antagonistic responses of herbicide combinations”, Weeds 15, p. 22 ff., the value E, which is expected if the activity of the individual active compounds is only additive, was calculated. E=X+Y−(X·Y/100)

[2] = test system: APESV; type: in vivo, Apera spica-venti; set-up: key to herbicidal activity against APESV found: rating on a scale from 0 to 100; conditions: post emergence
Experimental: as §1, §2, §3, §4, §5, §6, §7

[3] = test system: ERICA; type: in vivo, Conyza canadensis; set-up: key to herbicidal activity against ERICA found: rating on a scale from 0 to 100; conditions: post emergence
Experimental: as §1, §2, §3, §4, §5, §6, §7

[4] = test system: GALAP; type: in vivo, Galium aparine; set-up: key to herbicidal activity against GALAP found: rating on a scale from 0 to 100; conditions: post emergence
Experimental: as §1, §2, §3, §4, §5, §6, §7

[5] = test system: POLCO; type: in vivo, Polygonum convolvulus; set-up: key to herbicidal activity against POLCO found: rating on a scale from 0 to 100; conditions: post emergence
Experimental: as §1, §2, §3, §4, §5, §6, §7

[6] = test system: ALOMY; type: in vivo, Alopecurus myosuroides; set-up: key to herbicidal activity against ALOMY found: rating on a scale from 0 to 100; conditions: post emergence
Experimental: as §1, §2, §3, §4, §5, §6, §7

[7] = test system: IPOHE; type: in vivo, Ipomoea hederacea; set-up: key to herbicidal activity against IPOHE found: rating on a scale from 0 to 100; conditions: post emergence; for herbicidal activity against IPOHE found: g/ha a.i.: I.1 31.25
Experimental: as §1, §2, §3, §4, §5, §6, §7

[8] = test system: KCHSC; type: in vivo, Kochia scoparia; set-up: key to herbicidal activity against KCHSC found: rating on a scale from 0 to 100; conditions: post emergence
Experimental: as §1, §2, §3, §4, §5, §6, §7

[9] = test system: MATCH; type: in vivo, Matricaria recutita; set-up: key to herbicidal activity against MATCH found: rating on a scale from 0 to 100; conditions: post emergence
Experimental: as §1, §2, §3, §4, §5, §6, §7

[10] = test system: CONAR; type: in vivo, Convolvulus arvensis; set-up: key: rating on a scale from 0 to 100; conditions: application rate a.i.: I.1 62.5 g/ha, B.30 (imazamox) 3.75 g/ha, alone or as mixture (composition 1.030)
Experimental: as §1, §2, §3, §4, §5, §6, §7

[11] = test system: GERDI; type: in vivo, Geranium dissectum; set-up: key to herbicidal activity against GERDI found: rating on a scale from 0 to 100; conditions: post emergence
Experimental: as §1, §2, §3, §4, §5, §6, §7

[12] = test system: VIOAR; type: in vivo, Viola arvensis; set-up: key to herbicidal activity against VIOAR found / herbicidal activity against VIOLA found: rating on a scale from 0 to 100; conditions: post emergence
Experimental: as §1, §2, §3, §4, §5, §6, §7

[13] = g/ha a.i.: I.1 62.5, B.20 4, mixture 62.5+4
[14] = g/ha a.i.: I.1 31.25, B.24 2, mixture 31.25+2
[15] = g/ha a.i.: I.1 125, B.24 2, mixture 125+2
[16] = g/ha a.i.: I.1 31.25, B.24 1, mixture 31.25+1
[17] = application rate a.i.: I.1 62.5 g/ha, B.30 (imazamox) 3.75 g/ha, alone or as mixture (composition 1.030)
[18] = g/ha a.i.: I.1 31.25, B.52 2.5, mixture 31.25+2.5
[19] = g/ha a.i.: I.1 31.25, B.52 5, mixture 31.25+5
[20] = g/ha a.i.: I.1 62.5, B.52 2.5, mixture 62.5+2.5
[21] = g/ha a.i.: I.1 125, B.52 2.5, mixture 125+2.5
[22] = applied alone at 31.25 g/ha a.i.
[23] = applied alone at 62.5 g/ha a.i.

## CCSC(C)CC1CC(=O)C(/C(CC)=N/OC/C=C/Cl)=C(O)C1 (stereo not drawn) [B.1, clethodim]
[1]; applied alone at 6 g/ha a.i.
  herbicidal activity against ABUTH found: 0
[1]; applied alone at 12 g/ha a.i.
  herbicidal activity against ABUTH found: 25
[2]; applied alone at 6 g/ha a.i.
  herbicidal activity against APESV found: 75
[3]; applied alone at 12 g/ha a.i.
  herbicidal activity against ERICA found: 0
[4]; applied alone at 12 g/ha a.i.
  herbicidal activity against GALAP found: 0
[5]; applied alone at 6 g/ha a.i.
  herbicidal activity against POLCO found: 0

## CCCC(=NOCC(C)Oc1ccc(Cl)cc1)C1=C(O)CC(C2CCCSC2)CC1=O (stereo not drawn) [B.9, profoxydim]
[1]; applied alone at 6 g/ha a.i.
  herbicidal activity against ABUTH found: 0
[1]; applied alone at 12 g/ha a.i.
  herbicidal activity against ABUTH found: 40
[6]; applied alone at 12 g/ha a.i.
  herbicidal activity against ALOMY found: 25
[2]; applied alone at 6 g/ha a.i.
  herbicidal activity against APESV found: 15
[2]; applied alone at 12 g/ha a.i.
  herbicidal activity against APESV found: 55
[5]; applied alone at 12 g/ha a.i.
  herbicidal activity against POLCO found: 0

## COc1cc(OC)nc(Oc2cccc(Oc3nc(OC)cc(OC)n3)c2C(=O)O)n1 [B.20, bispyribac-sodium]
[1]; g/ha a.i.: I.1 31.25, B.20 2, mixture 31.25+2
  herbicidal activity against ABUTH found: 35
[1]; g/ha a.i.: I.1 31.25, B.20 4, mixture 31.25+4
  herbicidal activity against ABUTH found: 65
[6]; [13]
  herbicidal activity against ALOMY found: 55
[6]; g/ha a.i.: I.1 125, B.20 2, mixture 125+2
  herbicidal activity against ALOMY found: 30
[6]; g/ha a.i.: I.1 125, B.20 4, mixture 125+4
  herbicidal activity against ALOMY found: 55
[2]; [13]
  herbicidal activity against APESV found: 60
[7]; B.20 2, mixture 31.25+2
  herbicidal activity against IPOHE found: 30

## COc1cc(OC)nc(NC(=O)NS(=O)(=O)Nc2ccccc2C(=O)C2CC2)n1 [B.24, cyclosulfamuron]
[1]; [14]
  herbicidal activity against ABUTH found: 85
[6]; g/ha a.i.: I.1 125, B.24 1, mixture 125+1
  herbicidal activity against ALOMY found: 25
[6]; [15]
  herbicidal activity against ALOMY found: 35
[2]; [16]
  herbicidal activity against APESV found: 0
[7]; B.24 1, mixture 31.25+1
  herbicidal activity against IPOHE found: 75
[8]; [16]
  herbicidal activity against KCHSC found: 45
[8]; [14]
  herbicidal activity against KCHSC found: 45
[9]; [14]
  herbicidal activity against MATCH found: 65
[9]; [15]
  herbicidal activity against MATCH found: 65

## COCc1cnc(C2=NC(C)(C(C)C)C(=O)N2)c(C(=O)O)c1 (stereo not drawn) [B.30, imazamox]
[10]
  herbicidal activity against CONAR found: 85
[11]; [17]
  herbicidal activity against GERDI found: 90
[12]; [17]
  herbicidal activity against VIOAR found: 45

## COc1cnc(OC)n2nc(NS(=O)(=O)c3c(OCC(F)F)cccc3C(F)(F)F)nc12 [B.52, penoxsulam]
[1]; [18]
  herbicidal activity against ABUTH found: 85
[1]; [19]
  herbicidal activity against ABUTH found: 90
[1]; [20]
  herbicidal activity against ABUTH found: 85
[6]; [18]
  herbicidal activity against ALOMY found: 55
[6]; [20]
  herbicidal activity against ALOMY found: 55
[6]; [21]
  herbicidal activity against ALOMY found: 55
[2]; [20]
  herbicidal activity against APESV found: 55
[2]; [21]
  herbicidal activity against APESV found: 55
[3]; [18]
  herbicidal activity against ERICA found: 90
[3]; [19]
  herbicidal activity against ERICA found: 90
[3]; [20]
  herbicidal activity against ERICA found: 90
[3]; g/ha a.i.: I.1 62.5, B.52 5, mixture 62.5+5
  herbicidal activity against ERICA found: 90
[11]; [18]
  herbicidal activity against GERDI found: 80
[11]; [20]
  herbicidal activity against GERDI found: 80
[11]; [21]
  herbicidal activity against GERDI found: 80
[12]; [20]
  herbicidal activity against VIOAR found: 0
[12]; [21]
  herbicidal activity against VIOAR found: 0
[12]; g/ha a.i.: I.1 125, B.52 5, mixture 125+5
  herbicidal activity against VIOAR found: 60

## CC1(C)CON(Cc2ccccc2Cl)C1=O [B.97, clomazone]
[6]; Alopecurus myosuroides, post-emergence, 480 h, B.97 alone 375 g/ha a.i., read-out: herbicidal activity against ALOMY found
  pest or weed control at 375 g/ha: 45%
[6]; Alopecurus myosuroides, post-emergence, 480 h, B.97 alone 750 g/ha a.i., read-out: herbicidal activity against ALOMY found
  pest or weed control at 750 g/ha: 60%
[3]; Erigeron canadensis, post-emergence, 480 h, B.97 alone 375 g/ha a.i., read-out: herbicidal activity against ERICA found
  pest or weed control at 375 g/ha: 50%
[3]; Erigeron canadensis, post-emergence, 480 h, B.97 alone 750 g/ha a.i., read-out: herbicidal activity against ERICA found
  pest or weed control at 750 g/ha: 65%
[7]; Ipomoea hederacea, post-emergence, 480 h, B.97 alone 750 g/ha a.i., read-out: herbicidal activity against IPOHE found
  pest or weed control at 750 g/ha: 45%
[12]; Viola arvensis, post-emergence, B.97 alone 375 g/ha a.i., read-out: herbicidal activity against VIOAR found
  pest or weed control at 375 g/ha: 85%

## O=C(O)COc1ccc(Cl)cc1Cl [B.140, 2,4-D]
[1]; [22]
  herbicidal activity against ABUTH found: 35
[1]; [23]
  herbicidal activity against ABUTH found: 85
[6]; [22]
  herbicidal activity against ALOMY found: 0
[6]; [23]
  herbicidal activity against ALOMY found: 0
[3]; [22]
  herbicidal activity against ERICA found: 70
[3]; [23]
  herbicidal activity against ERICA found: 80
[4]; [22]
  herbicidal activity against GALAP found: 0
[4]; [23]
  herbicidal activity against GALAP found: 0
[9]; [22]
  herbicidal activity against MATCH found: 0
[5]; [22]
  herbicidal activity against POLCO found: 65
[5]; [23]
  herbicidal activity against POLCO found: 75
[12]; [22]
  herbicidal activity against VIOAR found: 60
[12]; [23]
  herbicidal activity against VIOAR found: 65

## CCC/C(=N\OCC)C1=C(O)CC(C2CCCSC2)CC1=O (stereo not drawn) [cycloxidim]
[2]; single active, 5 g/ha a.i.
  herbicidal activity against APESV found: 30
[4]; single active, 5 g/ha a.i.
  herbicidal activity against GALAP found: 25
[11]; single active, 2.5 g/ha a.i.
  herbicidal activity against GERDI found: 0
[11]; single active, 5 g/ha a.i.
  herbicidal activity against GERDI found: 20
[9]; single active, 5 g/ha a.i.
  herbicidal activity against MATCH found: 65
[12]; single active, 2.5 g/ha a.i.
  herbicidal activity against VIOAR found: 0

## CC(C)=NOCCOC(=O)[C@@H](C)Oc1ccc(Oc2cnc3cc(Cl)ccc3n2)cc1 [propaquizafop]
[1]; applied alone at 10 g/ha a.i.
  herbicidal activity against ABUTH found: 30
[6]; applied alone at 5 g/ha a.i.
  herbicidal activity against ALOMY found: 55
[6]; applied alone at 10 g/ha a.i.
  herbicidal activity against ALOMY found: 65
[2]; applied alone at 5 g/ha a.i.
  herbicidal activity against APESV found: 65
[3]; applied alone at 5 g/ha a.i.
  herbicidal activity against ERICA found: 0
[4]; applied alone at 5 g/ha a.i.
  herbicidal activity against GALAP found: 0
[4]; applied alone at 10 g/ha a.i.
  herbicidal activity against GALAP found: 10
[8]; applied alone at 5 g/ha a.i.
  herbicidal activity against KCHSC found: 0
[8]; applied alone at 10 g/ha a.i.
  herbicidal activity against KCHSC found: 10
[5]; applied alone at 5 g/ha a.i.
  herbicidal activity against POLCO found: 0
[5]; applied alone at 10 g/ha a.i.
  herbicidal activity against POLCO found: 0

## COc1nn(C(=O)NS(=O)(=O)c2c(C(=O)O)csc2C)c(=O)n1C [thiencarbazone]
[2]; applied alone at 0.5 g/ha a.i.
  herbicidal activity against APESV found: 25
[3]; applied alone at 0.5 g/ha a.i.
  herbicidal activity against ERICA found: 85
